The values that follow are results of earlier work, collected in patent publication US7476743B2, “Compounds, compositions, and methods” (Cytokinetics, Inc., priority 2002, dated 2009).

Broadly, the GI50 is the concentration that inhibits growth by half.

The series deals with A549 cells. The note with it: data provided by National Cancer Institute.
As for `O=c1[nH]cc(F)c(=O)[nH]1` [5-fluorouracil], the GI50 was 1000 nM.
As to `COc1cccc2c1C(=O)c1c(O)c3c(c(O)c1C2=O)C[C@@](O)(C(=O)CO)C[C@@H]3O[C@H]1C[C@H](N)[C@H](O)[C@H](C)O1` [doxorubicin], the GI50 is 63 nM.
For `NC(=O)NO` [hydroxyurea], the GI50 is 500000 nM.
For the compound `CC(=O)O[C@H]1C(=O)[C@@]2(C)[C@H]([C@H](OC(=O)c3ccccc3)[C@]3(O)C[C@H](OC(=O)[C@H](O)[C@@H](NC(=O)c4ccccc4)c4ccccc4)C(C)=C1C3(C)C)[C@]1(OC(C)=O)CO[C@@H]1C[C@@H]2O` [paclitaxel], the GI50 was 4 nM.
